Data published in patent US10933009B2, “Formulations and methods for treating dermatological disorders and diseases” (VAPOGENIX, INC., priority 2011, dated 2021).

Test: Isoflurane remaining in uncapped vials, determined by weighing over time
Format: physicochemical
Protocol: In the Examples that follow, the stability of isoflurane in the described compositions was determined in two ways. First, the compositions were examined for the presence of phase separation at the macroscopic level. Secondly, isoflurane content of the compositions was determined by weighing the remaining isoflurane in the composition when they were left uncapped over time. Briefly, glass vials were filled with 5-10 ml of the composition vehicle and then weighed; one of them received only vehicle (i.e., no isoflurane) and served as control. The other vials received varying amounts of isoflurane. They were left uncapped in the hood. Over time, the vials were weighed to see if the isoflurane stayed in the composition or had evaporated. The amount evaporated over time in the vehicle control was subtracted from that in the isoflurane-containing composition.
The pure form of isoflurane is a volatile anesthetic. In order to assess the volatility of isoflurane, two vials received the indicated amounts of pure form isoflurane. The vials were placed in the chemical fume hood and left uncapped. The vials were weighed at the indicated times to determine the amount of evaporated isoflurane. As it is shown in the table below 0.7893 g isoflurane was evaporated within 3 hours, while 3.4825 g isoflurane took approximately 8 hrs to evaporate completely. These amounts of isoflurane are similar to the amounts of isoflurane that were used to prepare the isoflurane compositions in the Examples that follow.

[1] = pure form of isoflurane 0.7893 g, uncapped vial
[2] = pure form of isoflurane 3.4825 g, uncapped vial

FC(F)OC(Cl)C(F)(F)F (stereo not drawn) [isoflurane]
time for isoflurane to evaporate (0.7893 g pure isoflurane, uncapped vial in fume hood): ≤ 3 h | time for isoflurane to evaporate completely (3.4825 g pure isoflurane, uncapped vial in fume hood): approximately 8 hrs | 0 h (% remaining iso) (pure form of isoflurane 0.7893 g, uncapped vial in fume hood): 100% | 0.25 h (% remaining iso) [1]: 85% | 1 h (% remaining iso) [1]: 52% | 2 h (% remaining iso) [1]: 14% | 3 h (% remaining iso) [1]: 0% | 0 h (% remaining iso) (pure form of isoflurane 3.4825 g, uncapped vial in fume hood): 100% | 0.25 h (% remaining iso) [2]: 96% | 1 h (% remaining iso) [2]: 86% | 2 h (% remaining iso) [2]: 75% | 3 h (% remaining iso) [2]: 62% | 5 h (% remaining iso) (pure form of isoflurane 3.4825 g, uncapped vial, 5 h): 38% | 7 h (pure form of isoflurane 3.4825 g, uncapped vial, 7 h): 13% | 8 h (pure form of isoflurane 3.4825 g, uncapped vial, 8 h): 3%
